Reference: PubChem BioAssay (NCI)
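1) Cells in 96-well plates. 2) Compound, 48 h, 5 concentrations. 3) Linear interpolation between surrounding doses. 4) Unreached endpoint = highest concentration. At the GI50, growth is halved. TGI is the concentration that stops growth completely.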

Key:
Assay in all cases: growth of human tumour cells (NCI), 48 h
CCRF-CEM leukemia = system: CCRF-CEM leukemia
NCI-H23 lung = system: NCI-H23 lung
SF-268 CNS = system: SF-268 CNS
SN12C renal = system: SN12C renal
COLO 205 colon = system: COLO 205 colon
KM12 colon = system: KM12 colon
SK-MEL-2 melanoma = system: SK-MEL-2 melanoma
OVCAR-8 ovarian = system: OVCAR-8 ovarian
UO-31 renal = system: UO-31 renal
BT-549 breast = system: BT-549 breast
NCI/ADR-RES ovarian = system: NCI/ADR-RES ovarian
SR leukemia = system: SR leukemia
SK-MEL-28 melanoma = system: SK-MEL-28 melanoma
NCI-H460 lung = system: NCI-H460 lung
A549 NSCLC = system: A549 NSCLC
HL-60(TB) leukemia = system: HL-60(TB) leukemia
PC-3 prostate = system: PC-3 prostate
HS 578T breast = system: HS 578T breast
SNB-75 CNS = system: SNB-75 CNS
SF-295 CNS = system: SF-295 CNS
HCT-15 colon = system: HCT-15 colon
MDA-MB-231 breast = system: MDA-MB-231 breast
MCF7 breast = system: MCF7 breast
SK-OV-3 ovarian = system: SK-OV-3 ovarian
DU-145 prostate = system: DU-145 prostate
HT29 colon = system: HT29 colon
UACC-62 melanoma = system: UACC-62 melanoma
MALME-3M melanoma = system: MALME-3M melanoma
ACHN renal = system: ACHN renal
NCI-H226 lung = system: NCI-H226 lung
UACC-257 melanoma = system: UACC-257 melanoma
K-562 leukemia = system: K-562 leukemia
MDA-MB-435 = system: MDA-MB-435
SNB-19 CNS = system: SNB-19 CNS
OVCAR-3 ovarian = system: OVCAR-3 ovarian
T-47D breast = system: T-47D breast
SK-MEL-5 melanoma = system: SK-MEL-5 melanoma
HOP-62 NSCLC = system: HOP-62 NSCLC
SF-539 CNS = system: SF-539 CNS
OVCAR-4 ovarian = system: OVCAR-4 ovarian
LOX IMVI melanoma = system: LOX IMVI melanoma
EKVX NSCLC = system: EKVX NSCLC
TK-10 renal = system: TK-10 renal
OVCAR-5 ovarian = system: OVCAR-5 ovarian
CAKI-1 renal = system: CAKI-1 renal
HCT-116 colon = system: HCT-116 colon
RPMI-8226 leukemia = system: RPMI-8226 leukemia
M14 melanoma = system: M14 melanoma
IGROV1 ovarian = system: IGROV1 ovarian
MOLT-4 leukemia = system: MOLT-4 leukemia
786-0 renal = system: 786-0 renal
U251 CNS = system: U251 CNS
NCI-H522 lung = system: NCI-H522 lung
A498 renal = system: A498 renal

O=C(N/N=C(\CN1CCN(c2cc3[nH]cc(C(=O)O)c(=O)c3cc2F)CC1)c1ccc(Cl)cc1)c1ccncc1
GI50 (CCRF-CEM leukemia): 22.5 µM | TGI (CCRF-CEM leukemia): > 100 µM | GI50 (NCI-H23 lung): 30.8 µM | TGI (NCI-H23 lung): 81.2 µM | GI50 (SF-268 CNS): 25.8 µM | TGI (SF-268 CNS): 89.9 µM | GI50 (SN12C renal): 24.8 µM | TGI (SN12C renal): 61.8 µM | GI50 (COLO 205 colon): 78 µM | TGI (COLO 205 colon): > 100 µM | GI50 (KM12 colon): 30.6 µM | TGI (KM12 colon): > 100 µM | GI50 (SK-MEL-2 melanoma): 30.7 µM | TGI (SK-MEL-2 melanoma): 74.4 µM | GI50 (OVCAR-8 ovarian): 21.4 µM | TGI (OVCAR-8 ovarian): 47.4 µM | GI50 (UO-31 renal): 18.7 µM | TGI (UO-31 renal): 41.8 µM | GI50 (BT-549 breast): 33.6 µM | TGI (BT-549 breast): > 100 µM | GI50 (NCI/ADR-RES ovarian): 28.4 µM | TGI (NCI/ADR-RES ovarian): 66.3 µM | GI50 (SR leukemia): 18.2 µM | TGI (SR leukemia): 55.4 µM | GI50 (SK-MEL-28 melanoma): > 100 µM | TGI (SK-MEL-28 melanoma): > 100 µM | GI50 (NCI-H460 lung): 22.7 µM | TGI (NCI-H460 lung): 67.6 µM | GI50 (A549 NSCLC): 22.3 µM | TGI (A549 NSCLC): 65.5 µM | GI50 (HL-60(TB) leukemia): 19.4 µM | TGI (HL-60(TB) leukemia): 43.3 µM | GI50 (PC-3 prostate): 22.7 µM | TGI (PC-3 prostate): 52.4 µM | GI50 (HS 578T breast): 29.1 µM | TGI (HS 578T breast): 99.2 µM | GI50 (SNB-75 CNS): 61.6 µM | TGI (SNB-75 CNS): > 100 µM | GI50 (SF-295 CNS): 21 µM | TGI (SF-295 CNS): 52.1 µM | GI50 (HCT-15 colon): 21.1 µM | TGI (HCT-15 colon): 42.8 µM | GI50 (MDA-MB-231 breast): 20.2 µM | TGI (MDA-MB-231 breast): 46.1 µM | GI50 (MCF7 breast): 21 µM | TGI (MCF7 breast): 66.9 µM | GI50 (SK-OV-3 ovarian): 78.6 µM | TGI (SK-OV-3 ovarian): > 100 µM | GI50 (DU-145 prostate): 36 µM | TGI (DU-145 prostate): > 100 µM | GI50 (HT29 colon): 37 µM | TGI (HT29 colon): > 100 µM | GI50 (UACC-62 melanoma): 25.6 µM | TGI (UACC-62 melanoma): 61.9 µM | GI50 (MALME-3M melanoma): 18.6 µM | TGI (MALME-3M melanoma): 58 µM | GI50 (ACHN renal): 18.4 µM | TGI (ACHN renal): 42.6 µM | GI50 (NCI-H226 lung): 23.1 µM | TGI (NCI-H226 lung): 80.5 µM | GI50 (UACC-257 melanoma): 23.2 µM | TGI (UACC-257 melanoma): 49 µM | GI50 (K-562 leukemia): 26.9 µM | TGI (K-562 leukemia): > 100 µM | GI50 (MDA-MB-435): 19.4 µM | TGI (MDA-MB-435): 49.4 µM | GI50 (SNB-19 CNS): 76.9 µM | TGI (SNB-19 CNS): > 100 µM | GI50 (OVCAR-3 ovarian): 2.89 µM | TGI (OVCAR-3 ovarian): 19.9 µM | GI50 (T-47D breast): 42.2 µM | TGI (T-47D breast): > 100 µM | GI50 (SK-MEL-5 melanoma): 16.4 µM | TGI (SK-MEL-5 melanoma): 31.6 µM | GI50 (HOP-62 NSCLC): 39.4 µM | TGI (HOP-62 NSCLC): > 100 µM | GI50 (SF-539 CNS): 28.6 µM | TGI (SF-539 CNS): 87.4 µM | GI50 (OVCAR-4 ovarian): 39.8 µM | TGI (OVCAR-4 ovarian): > 100 µM | GI50 (LOX IMVI melanoma): 16.8 µM | TGI (LOX IMVI melanoma): 33.4 µM | GI50 (EKVX NSCLC): 38 µM | TGI (EKVX NSCLC): > 100 µM | GI50 (TK-10 renal): 43 µM | TGI (TK-10 renal): > 100 µM | GI50 (OVCAR-5 ovarian): 50.9 µM | TGI (OVCAR-5 ovarian): > 100 µM | GI50 (CAKI-1 renal): 1.96 µM | TGI (CAKI-1 renal): 5.61 µM | GI50 (HCT-116 colon): 37.5 µM | TGI (HCT-116 colon): > 100 µM | GI50 (RPMI-8226 leukemia): 19 µM | TGI (RPMI-8226 leukemia): 43 µM | GI50 (M14 melanoma): 32.3 µM | TGI (M14 melanoma): 79.5 µM | GI50 (IGROV1 ovarian): 3.32 µM | TGI (IGROV1 ovarian): 26.9 µM | GI50 (MOLT-4 leukemia): 22.8 µM | TGI (MOLT-4 leukemia): 52.6 µM | GI50 (786-0 renal): 39.9 µM | TGI (786-0 renal): > 100 µM | GI50 (U251 CNS): 33.5 µM | TGI (U251 CNS): > 100 µM | GI50 (NCI-H522 lung): 22.7 µM | TGI (NCI-H522 lung): 52.9 µM | GI50 (A498 renal): 23.3 µM | TGI (A498 renal): > 100 µM
